{"source": "patent US20130172294A1", "about": "“Treatment with VB-201” (Vascular Biogenics Ltd., priority 2010, published 2013)", "system": "interleukin-23 (IL-23)", "experiment": "Plasma cytokine assay, IL-23 (Example 5)", "assay_type": "in vivo, human", "method": "Acquisition of samples was performed using FacsCalibur (Becton Dickinson)."}
{"smiles": "CCCCCCCCCCCCCCCCOCC(COP(=O)([O-])OCC[N+](C)(C)C)OCCCCC(=O)O", "note": "(centres unmarked) [VB-201, 1-hexadecyl-2-(4′-carboxybutyl)-glycerol-3-phosphocholine]", "values": [{"measurement": "IL-23 plasma levels", "setting": "40 mg per day, 14 days, both subjects with detectable pre-dose IL-23", "value": "considerably reduced"}, {"measurement": "IL-23 plasma levels", "setting": "80 mg per day, 28 days, all three subjects", "value": "considerably reduced"}]}
